Results reported in US20150037372A1, “pH-Responsive High-Density Lipoprotein-Like Particle Complex” (RESEARCH & BUSINESS FOUNDATION SUNGKYUNKWAN UNIVERSITY, priority 2012, published 2015).
Several values for one entry are separate records, joined by “and”; a condition that tells them apart may be missing. Equal entries are not always repeated.

Legend:
[1] = tested on: ICR mice; assay: Primary in vivo test using apoA-I with endotoxin content of more than 10,000 EU/mg (Example 7-2); conditions: for body weight loss / ALT / AST / Liver (%): endotoxin-containing apoA-I test; for ALT / AST: serum; for Liver (%): weight of liver relative to body weight
Protocol: (§1) A solution containing the drug Epothilone B (EpoB) was sonicated in the presence of a surfactant (sodium cholate) to encapsulate the EpoB in micelles composed of the surfactant. Then, apoA-I was added to and mixed with the sonicated solution while the concentration of the surfactant was lowered below its critical micelle concentration by dilution. The remaining surfactant was removed by Bio-bead, and the remaining solution was subjected to centrifugation and size exclusion chromatography, thereby preparing an EpoB-encapsulating apoA-I (hereinafter referred to as ‘EpoB-rHDL’).
(§2) EpoB was dissolved in poly ethylene glycol 300 (PEG 300) and then diluted so that the final concentration of PEG 300 was 30% (v/v). In addition, 30% PEG 300 that is a medium for Epothilone B, and apoA-I were selected as negative controls.
(§3) Twenty-eight (seven per group) 6-week-old female ICR mice were purchased from Orientbio Inc. (Korea). The mice were subjected to veterinary inspection for general health conditions and were acclimated to the laboratory environment for 1 week. An animal test was performed in the Laboratory Animal Research Center, Sungkyunkwan University.
(§4) The test material was administered into the tail vein of the grouped ICR mice at a dose of 100 μL once a week for 4 weeks. To verify the toxicity and safety of the test material, the concentration of EpoB encapsulated in apoA-I was measured, and the poB-encapsulating apoA-I or the free EpoB was administered at a dose higher than the maximum tolerated dose of EpoB. For the first 2 weeks, the test material was administered to the ICR mice at a dose of 10 mg/kg, which corresponds four times the maximum tolerated dose of EpoB, and for the next 2 weeks, it was administered at a high EpoB dose of 81 mg/kg. The control apoA-I was administered at a dose corresponding to the concentration of apoA-I in the EpoB-encapsulating apoA-I.
(§5) To observe changes in the body weight of the mice during the test period, the body weight of the mice was measured every day after the start of the test, and diarrhea, hair loss and quadriplegia as the suspected side effects of epoB were observed.
(§6) For liver toxicity analysis, upon the death of the test animals or at the end of the test, the animals were anesthetized with a mixture of Zoletil and Rompun, and then sera were obtained by blood collection from the abdominal aorta. Alanine transferase (ALT) and aspartate transaminase (AST) in the sera were analyzed by an automatic chemistry analyzer.
(§7) Upon the death of the test animals or at the end of the test, the animals were anesthetized with a mixture of Zoletil and Rompun. Next, the liver was harvested and weighed, and the percentage of the weight of the liver relative to the body weight was comparatively analyzed. In addition, the stomach was harvested and observed to the naked eye.
In a primary test, an EpoB-encapsulating apoA-I was prepared using an apoA-I having an endotoxin content of more than 10,000 EU/mg and was administered to ICR mice once a week for 4 weeks.

[2] = tested on: ICR mice; assay: In vivo safety test with endotoxin-purified apoA-I (Example 7-3)
Protocol: as §1, §2, §3, §4, §5, §6, §7
Using an apoA-I purified to have an endotoxin content of 5-10 EU/mg, an EpoB-encapsulating apoA-I was prepared according to the method described in Example 7-1(1).
EpoB and the EpoB-encapsulating apoA-I were administered at doses of 10 mg/kg and 81 mg/kg, which are higher than the maximum tolerated dose of EpoB.

[3] = tested on: breast cancer cell line ZR-75-1; assay: MTT cell viability assay, 72 hours; assay type: cell-based; conditions: ZR-75-1, overexpresses SR-B1, 72 hours
Protocol: (§8) The MTT assay was performed in the following manner: First, an MTT concentrate obtained by dissolving 3-(4,5-dimethyl-2-thiazolyl)-2,5-diphenyl-2H-tetrazolium bromide (MTT, Calbiochem) in PBS at a concentration of 5 mg/mL was filtered and diluted (10%) to prepare an MTT solution. Meanwhile, the medium and the drug were removed from the cells treated with the drug or the drug-encapsulating apoA-I, and then 100 μL of the prepared MIT solution was seeded into each well and allowed to react at 37° C. in 5% CO2 for 3 hours. After completion of the reaction, the medium and the MTT solution were removed, and 100 μL of 100% DMSO was seeded into each well and allowed to react at room temperature for 20 minutes under a light-shielded condition. After completion of the secondary reaction, the absorbance of the sample at 570 nm was measured using a spectrophotometer (Spectra M2, Molecular device), and the measured value was substituted into the following equation to determine cell viability: […]
(§9) In addition, the cancer cells were treated with free EpoB or the EpoB-encapsulating apoA-I at various EpoB concentrations for 72 hours, and the cell viability for each drug was measured using an MTT (3-(4,5-dimethylthiazol-2-yl)-2,5-diphenyltetrazolium bromide) assay. […]

[4] = tested on: colorectal cancer cell line Caco-2; assay: MTT cell viability assay, 72 hours; assay type: cell-based; conditions: Caco-2, overexpresses SR-B1, 72 hours
Protocol: as §8, §9

[5] = high dose 81 mg/kg, week 3 and 4
[6] = each ICR mouse (No. 1-7), * raised by hemolysis, listed as apoA-1
[7] = group average (total), hemolysis values excluded

For `C/C(=C\c1csc(C)n1)[C@@H]1C[C@@H]2O[C@]2(C)CCC[C@H](C)[C@H](O)[C@@H](C)C(=O)C(C)(C)[C@@H](O)CC(=O)O1` [EpoB, Epothilone B, reference compound], the survival rate ([1]; 22 days after the start of administration, tail vein once a week, endotoxin-containing apoA-I) was 100%, the body weight loss [1] was “showed a body weight loss” and the ALT [1] was 18.1 ± .38 U/L. The AST [1] was 45.6 ± 9.3 U/L, the “Liver (%)” value [1] was 4.7 ± 0.3% and the “adverse effects in appearance examination” value ([2]; 10 mg/kg at week 1 and week 2) was “no adverse effects were observed”. For the same molecule, the “gastric hypersensitivity caused by abdominal lymphadenopathy” value ([2]; autopsy) was “observed in the control group”, the “Liver (%)” value ([2]; each ICR mouse (No. 1-7)) was 3.45% and 4.19% and 4.85% and 6.48% and 3.79% and 5.12% and 4.33% and the hair loss [2, 5] was “hair loss occurred”. The quadriplegia [2, 5] was “quadriplegia”, the “survival of the mice” value [2, 5] was “dead at week 3 and week 4” and the body weight loss ([2]; high dose 81 mg/kg, week 3 and 4, EpoB values are of individual animals, 81 mg/kg) was “about 25% and 7-17% and about 11% and 11.5%”. The “decrease of AST/ALT ratio compared to control group administered with EpoB” value ([2]; mouse, in vivo) was “about 47%”, the “cell viability compared to treatment with the EpoB-encapsulating apoA-I” value [3] was “higher cell viability” and the “cell viability compared to treatment with the EpoB-encapsulating apoA-I” value [4] was “higher cell viability”.

With “apoA-I: recombinant His-tagged human apolipoprotein A-I, 28 kDa, 243 amino acids; carrier protein and negative control” the body weight loss [1] was “higher body weight loss”, the toxicity ([1]; once a week for 4 weeks, apoA-I with endotoxin more than 10,000 EU/mg) was “toxicity was observed” and the ALT [1] was 34.4 ± 16.9 U/L. For the same molecule, the AST [1] was 52.9 ± 13.2 U/L, the “Liver (%)” value [1] was 6 ± 1.1% and the ALT [2, 6] was 27 U/L and 25 U/L and 29 U/L and 21 U/L and 19 U/L and 15 U/L and 16 U/L. For the same molecule, the AST [2, 6] was 64 U/L and 73 U/L and 56 U/L and 48 U/L and 69 U/L and 41 U/L and 49 U/L, the AST/ALTT [2, 6] was 2.37 and 2.92 and 1.93 and 2.29 and 3.63 and 2.73 and 3.06 and the “Liver (%)” value ([2]; each ICR mouse (No. 1-7), listed as apoA-1) was 3.83% and 3.55% and 4.87% and 3.42% and 4.03% and 5% and 4.13%. The “Liver (%)” value ([2]; group average (total)) was 4.12 ± 0.57%, the ALT [2, 7] was 21.71 ± 5.03 U/L and the AST [2, 7] was 57.14 ± 11.03 U/L. The AST/ALT [2, 7] was 2.70 ± 0.52 and the “survival, body weight change and hair loss” value ([2]; high dose of about 266 mg/kg) was “did not affect the survival, body weight change and hair loss”.
